Results taken from paper PMC11111691, “Cystine-knot peptide inhibitors of HTRA1 bind to a cryptic pocket within the active site region” (Nature Communications, 2024).
Positions of bridges follow the written chain, without caps; N, C: chain ends. Non-standard residues stand in square brackets, D forms with d. Residues, ends and D or L forms follow the SMILES beside them. Tyr(3-Cl) = N[C@@H](Cc1ccc(O)c(Cl)c1)C(=O)O

biological target: T1, HTRA1^FL (Homo sapiens, UniProt Q92743); assay: HTRA1^FL enzyme inhibition assay with synthetic substrate H2-OPT; assay type: biochemical
T1 construct: Human full-length HTRA1 (HTRA1^FL, Q23-P480); made in house; host or cells: Trichoplusia ni cells
T1 sequence (Q92743 23-480): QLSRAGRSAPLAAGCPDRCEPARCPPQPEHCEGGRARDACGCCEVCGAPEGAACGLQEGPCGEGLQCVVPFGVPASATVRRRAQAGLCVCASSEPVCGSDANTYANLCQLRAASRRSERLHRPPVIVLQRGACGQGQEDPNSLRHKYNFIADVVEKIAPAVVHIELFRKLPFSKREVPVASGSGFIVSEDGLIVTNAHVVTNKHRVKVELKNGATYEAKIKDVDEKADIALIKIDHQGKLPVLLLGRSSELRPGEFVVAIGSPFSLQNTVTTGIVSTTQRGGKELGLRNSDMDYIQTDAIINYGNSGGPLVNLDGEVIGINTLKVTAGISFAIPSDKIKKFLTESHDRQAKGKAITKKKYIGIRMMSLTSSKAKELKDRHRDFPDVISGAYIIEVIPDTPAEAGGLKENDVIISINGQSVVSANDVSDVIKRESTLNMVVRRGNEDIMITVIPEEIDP
Procedure: Assays with the fluorescence-quenched synthetic substrate Mca-IRRVSYSFK(Dnp)K (H2-OPT)[38],[60] were carried out essentially as described. CKP stock solutions in DMSO were diluted in TNC buffer (dilution series for IC50 determinations, or final concentration of 2 µM for selectivity assay or as indicated for HTRA1/4 mutants) and incubated with enzymes in 96-well black optical bottom plates for 60 min at 37 °C. For selectivity experiments we used the 7mer-ABP as inhibitor, which was incubated with the proteases for 15 min at 37 °C. A 10 mM stock solution of H2-OPT in DMSO was diluted with water, prewarmed at 37 °C and then added to the CKP-enzyme mixtures. The final concentrations in the reaction mixtures were: 1 nM HTRA1^FL, 3 nM HTRA1^PD/PDZ, 1 nM HTRA1^PD, 1 nM HTRA2^PD/PDZ, 3 nM HTRA3^FL, 60 nM HTRA3^PD/PDZ, 6 nM HTRA4^FL, 1 µM HTRA4^PD/PDZ, 1 nM mouse HTRA1^PD, 25 nM HTRA1^PD-A202Y, 1 µM HTRA4^PD/PDZ-Y200A, 0.5 mM 7mer-ABP, 5 µM H2-OPT, and 0.25% DMSO. The kinetics of substrate cleavage was measured at 37 °C on a SpectraMax M5 microplate reader with excitation of 328 nm and emission of 393 nm. The determined initial rates of cleavage were expressed as percent of control (DMSO control) after subtracting the baseline rates (without enzyme). IC50 values were determined by Sigmoidal 4PL modeling of multiple data points from serial dilutions of CKPs using Prism 9 software (GraphPad). For selectivity assays with HTRA1-4^PD/PDZ constructs, the specific activities of the enzymes and enzyme:CKP inhibitor ratios were as follows: HTRA1^PD/PDZ, 12560 mRFU/min/nM – 1:667; HTRA2^PD/PDZ, 32300 mRFU/min/nM – 1:2000; HTRA3^PD/PDZ, 962 mRFU/min/nM – 1:33; HTRA4^PD/PDZ, 18 mRFU/min/nM – 1:2.

First: CC[C@H](C)[C@H](NC(=O)[C@H](CCC(N)=O)NC(=O)[C@H](CCCNC(=N)N)NC(=O)[C@H](CC(C)C)NC(=O)CNC(=O)[C@H](Cc1c[nH]c2ccccc12)NC(=O)CNC(=O)[C@@H]1CSSC[C@@H]2NC(=O)[C@H](CC(=O)O)NC(=O)[C@H](CC(=O)O)NC(=O)[C@H](Cc3c[nH]cn3)NC(=O)[C@H]([C@@H](C)O)NC(=O)[C@H](CCC(=O)O)NC(=O)[C@@H]3CSSC[C@H](NC(=O)[C@H]([C@@H](C)O)NC(=O)[C@H](CCC(N)=O)NC(=O)[C@H](CSSC[C@H](NC(=O)[C@@H](NC(=O)[C@@H]4CCCN4C(=O)[C@H](CC(=O)O)NC(=O)[C@H](C)NC(=O)[C@@H](N)Cc4c[nH]cn4)[C@@H](C)CC)C(=O)N[C@@H](CC(N)=O)C(=O)N[C@@H](CCCCN)C(=O)N4CCC[C@H]4C(=O)N3)NC(=O)[C@H](Cc3ccccc3)NC(=O)[C@H](Cc3c[nH]c4ccccc34)NC(=O)[C@H](C)NC(=O)CNC(=O)[C@H](CO)NC2=O)C(=O)N[C@@H](Cc2ccc(O)cc2)C(=O)N[C@@H](Cc2ccc(O)cc2)C(=O)N[C@@H](C)C(=O)N[C@@H]([C@@H](C)O)C(=O)N[C@@H](Cc2c[nH]c3ccccc23)C(=O)N[C@@H](CO)C(=O)N1)C(=O)N[C@@H](CC(=O)O)C(N)=O [1A8.K11E] (H-HADPICNKPCETHDDCSGAWFCQTCYYATWSCGWGLRQID-NH2; disulfide 6-22, 10-25, 16-32)
Second: CC[C@H](C)[C@H](NC(=O)[C@H](CCC(N)=O)NC(=O)[C@H](CCCNC(=N)N)NC(=O)[C@H](CC(C)C)NC(=O)CNC(=O)[C@H](Cc1c[nH]c2ccccc12)NC(=O)CNC(=O)[C@@H]1CSSC[C@@H]2NC(=O)[C@H](CC(=O)O)NC(=O)[C@H](CC(=O)O)NC(=O)[C@H](Cc3c[nH]cn3)NC(=O)[C@H]([C@@H](C)O)NC(=O)[C@H](CCCCN)NC(=O)[C@@H]3CSSC[C@H](NC(=O)[C@H]([C@@H](C)O)NC(=O)[C@H](CCC(N)=O)NC(=O)[C@H](CSSC[C@H](NC(=O)[C@@H](NC(=O)[C@@H]4CCCN4C(=O)[C@H](CC(=O)O)NC(=O)[C@H](C)NC(=O)[C@@H](N)Cc4c[nH]cn4)[C@@H](C)CC)C(=O)N[C@@H](CC(N)=O)C(=O)N[C@@H](CCCCN)C(=O)N4CCC[C@H]4C(=O)N3)NC(=O)[C@H](Cc3ccccc3)NC(=O)[C@H](Cc3c[nH]c4ccccc34)NC(=O)[C@H](C)NC(=O)CNC(=O)[C@H](CO)NC2=O)C(=O)N[C@@H](Cc2ccc(O)cc2)C(=O)N[C@@H](Cc2ccc(O)cc2)C(=O)N[C@@H](C)C(=O)N[C@@H](CO)C(=O)N[C@@H](Cc2c[nH]c3ccccc23)C(=O)N[C@@H](CO)C(=O)N1)C(=O)N[C@@H](CC(=O)O)C(N)=O [1A8.L5.2] (H-HADPICNKPCKTHDDCSGAWFCQTCYYASWSCGWGLRQID-NH2; disulfide 6-22, 10-25, 16-32)
The IC50 of the first is 2-fold lower: 1 ± 0.3 nM for the first, 2 ± 0.2 nM for the second. The first is the more potent here.

CC[C@H](C)[C@H](NC(=O)[C@H](CCC(N)=O)NC(=O)[C@H](CCCNC(=N)N)NC(=O)[C@H](CC(C)C)NC(=O)CNC(=O)[C@H](Cc1c[nH]c2ccccc12)NC(=O)CNC(=O)[C@@H]1CSSC[C@@H]2NC(=O)[C@H](CC(=O)O)NC(=O)[C@H](CC(=O)O)NC(=O)[C@H](Cc3c[nH]cn3)NC(=O)[C@H]([C@@H](C)O)NC(=O)[C@H](CCCCN)NC(=O)[C@@H]3CSSC[C@H](NC(=O)[C@H]([C@@H](C)O)NC(=O)[C@H](CCC(N)=O)NC(=O)[C@H](CSSC[C@H](NC(=O)[C@@H](NC(=O)[C@@H]4CCCN4C(=O)[C@H](CC(=O)O)NC(=O)[C@H](C)NC(=O)[C@@H](N)Cc4c[nH]cn4)[C@@H](C)CC)C(=O)NCC(=O)N[C@@H](CO)C(=O)N[C@@H](CCC(N)=O)C(=O)N3)NC(=O)[C@H](Cc3ccccc3)NC(=O)[C@H](Cc3c[nH]c4ccccc34)NC(=O)[C@H](C)NC(=O)CNC(=O)[C@H](CO)NC2=O)C(=O)N[C@@H](Cc2ccc(O)cc2)C(=O)N[C@@H](Cc2ccc(O)cc2)C(=O)N[C@@H](C)C(=O)N[C@@H]([C@@H](C)O)C(=O)N[C@@H](Cc2c[nH]c3ccccc23)C(=O)N[C@@H](CO)C(=O)N1)C(=O)N[C@@H](CC(=O)O)C(N)=O [1A8.L1.1] (H-HADPICGSQCKTHDDCSGAWFCQTCYYATWSCGWGLRQID-NH2; disulfide 6-22, 10-25, 16-32) and CC[C@H](C)[C@H](NC(=O)[C@H](CCC(N)=O)NC(=O)[C@H](CCCNC(=N)N)NC(=O)[C@H](CC(C)C)NC(=O)CNC(=O)[C@H](Cc1c[nH]c2ccccc12)NC(=O)CNC(=O)[C@@H]1CSSC[C@@H]2NC(=O)[C@H](CC(=O)O)NC(=O)[C@H](CC(=O)O)NC(=O)[C@H](Cc3c[nH]cn3)NC(=O)[C@H]([C@@H](C)O)NC(=O)[C@H](CCCCN)NC(=O)[C@@H]3CSSC[C@H](NC(=O)[C@H]([C@@H](C)O)NC(=O)[C@H](CCC(N)=O)NC(=O)[C@H](CSSC[C@H](NC(=O)[C@@H](NC(=O)[C@@H]4CCCN4C(=O)[C@H](CC(=O)O)NC(=O)[C@H](C)NC(=O)[C@@H](N)Cc4c[nH]cn4)[C@@H](C)CC)C(=O)NCC(=O)N[C@@H](Cc4c[nH]cn4)C(=O)N[C@@H](CCC(N)=O)C(=O)N3)NC(=O)[C@H](Cc3ccccc3)NC(=O)[C@H](Cc3c[nH]c4ccccc34)NC(=O)[C@H](C)NC(=O)CNC(=O)[C@H](CO)NC2=O)C(=O)N[C@@H](Cc2ccc(O)cc2)C(=O)N[C@@H](Cc2ccc(O)cc2)C(=O)N[C@@H](C)C(=O)N[C@@H]([C@@H](C)O)C(=O)N[C@@H](Cc2c[nH]c3ccccc23)C(=O)N[C@@H](CO)C(=O)N1)C(=O)N[C@@H](CC(=O)O)C(N)=O [1A8.L1.2] (H-HADPICGHQCKTHDDCSGAWFCQTCYYATWSCGWGLRQID-NH2; disulfide 6-22, 10-25, 16-32) are within 1.5-fold of each other in IC50: 2.3 ± 0.1 nM for the first, 3.2 ± 0.1 nM for the second.

First: CC[C@H](C)[C@H](NC(=O)[C@H](CCC(N)=O)NC(=O)[C@H](CCCNC(=N)N)NC(=O)[C@H](CC(C)C)NC(=O)CNC(=O)[C@H](Cc1c[nH]c2ccccc12)NC(=O)CNC(=O)[C@@H]1CSSC[C@@H]2NC(=O)[C@H](CC(=O)O)NC(=O)[C@H](CC(=O)O)NC(=O)[C@H](Cc3c[nH]cn3)NC(=O)[C@H]([C@@H](C)O)NC(=O)[C@H](CCCCN)NC(=O)[C@@H]3CSSC[C@H](NC(=O)[C@H]([C@@H](C)O)NC(=O)[C@H](CCC(N)=O)NC(=O)[C@H](CSSC[C@H](NC(=O)[C@@H](NC(=O)[C@@H]4CCCN4C(=O)[C@H](CC(=O)O)NC(=O)[C@H](C)NC(=O)[C@@H](N)Cc4c[nH]cn4)[C@@H](C)CC)C(=O)N[C@@H](CC(N)=O)C(=O)N[C@@H](CCCCN)C(=O)N4CCC[C@H]4C(=O)N3)NC(=O)[C@H](Cc3ccccc3)NC(=O)[C@H](Cc3c[nH]c4ccccc34)NC(=O)[C@H](C)NC(=O)CNC(=O)[C@H](CO)NC2=O)C(=O)N[C@@H](Cc2ccc(O)cc2)C(=O)N[C@@H](Cc2ccc(O)cc2)C(=O)N[C@@H](C)C(=O)N[C@@H](CC(N)=O)C(=O)N[C@@H](Cc2c[nH]c3ccccc23)C(=O)N[C@@H](CO)C(=O)N1)C(=O)N[C@@H](CC(=O)O)C(N)=O [1A8.L5.1] (H-HADPICNKPCKTHDDCSGAWFCQTCYYANWSCGWGLRQID-NH2; disulfide 6-22, 10-25, 16-32)
Second: CC[C@H](C)[C@H](NC(=O)[C@H](CCC(N)=O)NC(=O)[C@H](CCCNC(=N)N)NC(=O)[C@H](CC(C)C)NC(=O)CNC(=O)[C@H](Cc1c[nH]c2ccccc12)NC(=O)CNC(=O)[C@@H]1CSSC[C@@H]2NC(=O)[C@H](CC(=O)O)NC(=O)[C@H](CC(=O)O)NC(=O)[C@H](Cc3c[nH]cn3)NC(=O)[C@H]([C@@H](C)O)NC(=O)[C@H](CCCCN)NC(=O)[C@@H]3CSSC[C@H](NC(=O)[C@H]([C@@H](C)O)NC(=O)[C@H](CCC(N)=O)NC(=O)[C@H](CSSC[C@H](NC(=O)[C@@H](NC(=O)[C@@H]4CCCN4C(=O)[C@H](CC(=O)O)NC(=O)[C@H](C)NC(=O)[C@@H](N)Cc4c[nH]cn4)[C@@H](C)CC)C(=O)N[C@@H](CC(N)=O)C(=O)N[C@@H](CCCCN)C(=O)N4CCC[C@H]4C(=O)N3)NC(=O)[C@H](Cc3ccccc3)NC(=O)[C@H](Cc3c[nH]c4ccccc34)NC(=O)[C@H](C)NC(=O)CNC(=O)[C@H](CO)NC2=O)C(=O)N[C@@H](Cc2ccc(O)c(Cl)c2)C(=O)N[C@@H](Cc2ccc(O)cc2)C(=O)N[C@@H](C)C(=O)N[C@@H]([C@@H](C)O)C(=O)N[C@@H](Cc2c[nH]c3ccccc23)C(=O)N[C@@H](CO)C(=O)N1)C(=O)N[C@@H](CC(=O)O)C(N)=O [1A8.Y26Y(3Cl)] (H-HADPICNKPCKTHDDCSGAWFCQTC[Tyr(3-Cl)]YATWSCGWGLRQID-NH2; disulfide 6-22, 10-25, 16-32)
The IC50 of the first is 2.4-fold lower: 1 ± 0.1 nM for the first, 2.4 ± 0.3 nM for the second.
